Earlier results, collected in patent US7803392B2, “pH-Sensitive mucoadhesive film-forming gels and wax-film composites suitable for topical and mucosal delivery of molecules” (University of Kentucky Research Foundation, priority 2000, dated 2010).

What was measured:
[1] = buccal 10 mg midazolam per 2 mL
[2] = buccal administration of 5 mg midazolam
[3] = subcutaneous injection twice a day for 8 days, patients

In the case of `Oc1cc(Cl)ccc1Oc1ccc(Cl)cc1Cl` [Triclosan, 2,4,4′-Trichloro 2′-hydroxy-diphenyl-ether 5-chloro 2-(2,4-dichlorophenoxy)-phenol], the pKa is given as 7.9, the “solubility in alkaline solutions” value (alkaline solutions) is given as “readily soluble” and the solubility in ethanol (ethanol) is given as “soluble”. For the same compound, the “solubility in polyethylene glycol 400” value (polyethylene glycol 400) was “soluble” and the solubility in water (water) was “insoluble”.
In the case of `Cc1ncc2n1-c1ccc(Cl)cc1C(c1ccccc1F)=NC2` [midazolam], the “average time to stop seizures after administration” value ([1]; children) is listed as 6 min, the seizures stopped ([1]; children (30/40 seizures)) is listed as 75% and the maximum plasma concentration [2] is listed as 55.9 ng/mL. For the same compound, the mean bioavailability [2] was 74.5% and the “time of maximum plasma concentration” value [2] was 30 min.
In the case of Hirudin, the “lower overall rate of deep-vein thrombosis than low molecular weight heparin” value [3] is listed as ~30%.
